Patent publication US10626094B2 (La Jolla Institute of Allergy & Immunology, priority 2014, dated 2020)
pIC50: −log10 of the molar value. Where two headings read alike, the source gives them in different places.

How the values were obtained:
[1] = biological target: LMPTP-A (Low Molecular Weight Protein Tyrosine Phosphatase-A) enzyme (Homo sapiens (Human), UniProt P24666); assay: LMPTP primary screening / LMPTP (OMFP) enzyme inhibition assay, fluorescence intensity; type: biochemical
How it was run: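 0.625 nM LMPTP-A with 400 μM OMFP substrate in 50 mM Bis-Tris pH 6.0, 1 mM DTT, 0.01% Triton X-100, […]. Compounds at 20 μM final. Incubated 50 min at room temperature in the dark; fluorescence intensity read.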

[2] = hepatic microsomal stability, human liver microsomes; type: in vitro ADME; settings: Human microsomes, 1 hr
Text: (§1) In the course of this investigation many compounds with similar potencies in the LMPTP (OMFP) assay were found. In order to determine which compound would be the best candidate for in vivo studies, an abbreviated ADME panel was ran on these compounds, a tabulation of the most interesting data on this set of compounds is illustrated in Table 3 below. From the hepatic microsome stability data the candidate selected for in vivo studies was Compound D1.
(§2) The microsomal stability assay is commonly used to rank compounds according to their metabolic stability. This assay addresses the pharmacologic question of how long the parent compound will remain circulating in plasma within the body.

[3] = hepatic microsomal stability, mouse liver microsomes; type: in vitro ADME; settings: Mouse microsomes, 1 hr
Text: as §1, §2

[4] = plasma stability, mouse plasma; type: in vitro ADME; settings: Mouse plasma, 3 hrs
Text: (§3) Plasma stability is a measure of the stability of small molecules and peptides in plasma and is an important parameter, which can strongly influence the in vivo efficacy of a test compound. Drug candidates are exposed to enzymatic processes (proteinases. esterases) in plasma, and they can undergo intramolecular rearrangement or bind irreversibly (covalently) to proteins.

[5] = system: insulin receptor in HepG2 cells; settings: 10 microM compound overnight, insulin 5 min
[6] = aqueous solubility (buffer pH 5.0-7.4, PBS); type: physicochemical
[7] = plasma stability, human plasma; type: in vitro ADME; settings: Human plasma, 3 hrs
Text: as §3

[8] = LMPTP-A, OMFP substrate, method of Example 2, read-out: IC50

LMPTP-A (Low Molecular Weight Protein Tyrosine Phosphatase-A) enzyme, sequence (P24666 whole entry): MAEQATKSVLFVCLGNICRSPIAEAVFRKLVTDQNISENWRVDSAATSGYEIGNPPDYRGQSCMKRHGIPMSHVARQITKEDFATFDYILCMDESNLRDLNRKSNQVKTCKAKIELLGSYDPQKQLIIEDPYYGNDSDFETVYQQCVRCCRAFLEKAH

pIC50 [1, 8]	Compound	other results
6.10 to 6.70	CCN(CC)CCCNC(=O)c1ccc(-c2cc(NCCCN3CCCCC3)c3ccccc3n2)cc1 [Compound I190]	
5.30 to 6.10	Fc1cc(Cl)ccc1-c1cc(Nc2cccc(CC3CCNCC3)c2)c2ccccc2n1 [Compound I7, [2-(4-chloro-2-fluorophenyl)(4-quinolyl)][3-(4-piperidylmethyl)phenyl]amine]	
5.30 to 6.10	COc1ccc(-c2cc(Nc3ccc(F)c(Cl)c3)c3ccccc3n2)cc1 [Compound G49, (3-chloro-4-fluorophenyl)[2-(4-methoxyphenyl)(4-quinolyl)]amine]	
5.30 to 6.10	Fc1ccc(-c2cc(NCCCC3CCCNC3)c3ccccc3n2)cc1 (stereo not shown) [Compound I188, [2-(4-fluorophenyl)(4-quinolyl)](3-piperidylpropyl)amine]	
6.10 to 6.70	COc1ccc(-c2cc(Nc3cccc(CC4CCN(C(C)=O)CC4)c3)c3ccccc3n2)cc1 [Compound I29, 1-acetyl-4-[(3-{[2-(4-methoxyphenyl)(4-quinolyl)]amino}phenyl)methyl]piperidine]	
5.30 to 6.10	FC(F)(F)c1ncccc1-c1cc(NCCCN2CCCCC2)c2ccccc2n1 [Compound I153]	
5.30 to 6.10	CC(=O)Nc1cc(C(=O)O)cc(-c2cc(NCCCN3CCCCC3)c3ccccc3n2)c1 [Compound I250]	
5.30 to 6.10	(2-fluoro-4-{4-[(3-piperidylpropyl)amino](2-quinolyl)}phenyl)-N-methylcarboxamide [Compound I228]	
5.30 to 6.10	COc1ccc(-c2cc(NCCc3ccccn3)c3ccccc3n2)cc1 [Compound I199, [2-(4-methoxyphenyl)(4-quinolyl)](2-(2-pyridyl)ethyl)amine]	
5.30 to 6.10	CS(=O)(=O)c1ccc(-c2cc(NCCCN3CCCCC3)c3ccccc3n2)c(C(F)(F)F)c1 [Compound I121]	
5.30 to 6.10	CSc1cncc(-c2cc(NCCCN3CCCCC3)c3ccccc3n2)c1 [Compound I92]	
6.10 to 6.70	CN(C)Cc1cccc(Nc2cc(-c3cccc(Cl)c3)nc3ccccc23)c1 [Compound I22, [(3-{[2-(3-chlorophenyl)(4-quinolyl)]amino}phenyl)methyl]dimethylamine]	
5.30 to 6.10	COc1ccc(-c2cc(NCCC3CCCN3C)c3ccccc3n2)cc1 (stereo not shown) [Compound I24, [2-(4-methoxyphenyl)(4-quinolyl)][2-(1-methylpyrrolidin-2-yl)ethyl]amine]	
5.30 to 6.10	CC(=O)Nc1ccc(-c2cc(NCCCN3CCCCC3)c3ccccc3n2)cc1C(F)(F)F [Compound I77]	
5.30 to 6.10	Clc1ccc(-c2cc(NCCCN3CCCCC3)c3ccccc3n2)s1 [Compound I142]	

Further lines, the compound ahead of its results:

Compound	pIC50 [1, 8]	other results
FC(F)(F)Oc1ccccc1-c1cc(NCCCC2CCCNC2)c2ccccc2n1 (stereo not shown) [Compound I166, (3-piperidylpropyl){2-[2-(trifluoromethoxy)phenyl](4-quinolyl)}amine]	6.10 to 6.70	
COc1ccc(-c2cc(NCc3cccc(C#N)c3)c3ccccc3n2)cc1 [Compound G82, 3-({[2-(4-methoxyphenyl)-4-quinolyl]amino}methyl)benzenecarbonitrile]	5.30 to 6.10	
COc1ccc(-c2cc(Nc3ccc(CC4CCNCC4)cc3)c3ccccc3n2)cc1 [Compound I32, [2-(4-methoxyphenyl)(4-quinolyl)][4-(4-piperidylmethyl)phenyl]amine]	5.30 to 6.10	
CC(C)NC(=O)c1ccc(-c2cc(NCCCN3CCCCC3)c3ccccc3n2)cc1 [Compound I61, N-(methylethyl)(4-{4-[(3-piperidylpropyl)amino](2-quinolyl)}phenyl)carboxamide]	5.30 to 6.10	
N-cyclopropyl(4-{4-[(3-piperidylpropyl)amino](2-quinolyl)}phenyl)carboxamide [Compound I70]	5.30 to 6.10	
Cc1nc(C)c(-c2cc(NCCCC3CCCNC3)c3ccccc3n2)s1 (stereo not shown) [Compound I176, [2-(2,4-dimethyl(1,3-thiazol-5-yl))(4-quinolyl)](3-piperidylpropyl)amine]	5.30 to 6.10	
C[N+]1(C)CCC(Cc2cccc(Nc3cc(-c4cc(C(F)(F)F)cc(C(F)(F)F)c4)nc4ccccc34)c2)CC1 [Compound I51, {3-[(1,1-dimethyl(4-piperidyl))methyl]phenyl} {2-[3,5-bis(trifluoromethyl)phenyl](4-quinolyl)}amine]	< 5.30	
c1ccc2c(NCCCN3CCCCC3)cc(-c3ccc4nc[nH]c4c3)nc2c1 [Compound I111]	5.30 to 6.10	
CNC(=O)c1ccc(-c2cc(NCCCN3CCCCC3)c3ccccc3n2)cc1Cl [Compound I251]	6.10 to 6.70	
COc1ccc(-c2cc(Nc3ccc(C)cc3)c3ccccc3n2)cc1 [Compound G43, [2-(4-methoxyphenyl)(4-quinolyl)](4-methylphenyl)amine]	5.30 to 6.10	
{2-[5-chloro-2-(cyclopropylmethoxy)(3-pyridyl)](4-quinolyl)}(3-piperidylpropyl)amine [Compound I95]	5.30 to 6.10	
CCN(CC)C(=O)c1ccc(-c2cc(NCCCC3CCCNC3)c3ccccc3n2)cc1 (stereo not shown) [Compound I71, N,N-diethyl(4-{4-[(3-piperidylpropyl)amino](2-quinolyl)}phenyl)carboxamide]	6.10 to 6.70	
[2-(2,4-dichlorophenyl)(4-quinolyl)](3-piperidylpropyl)amine [Compound I103]	5.30 to 6.10	
CN(C)c1cc(-c2cccs2)nc2ccccc12 [Compound G17, Dimethyl-(2-thiophen-2-yl-quinolin-4-yl)-amine]	< 5.30	
CCN(CC)S(=O)(=O)c1ccc(-c2cc(NCCCN3CCCCC3)c3ccccc3n2)cc1 [Compound I246]	5.30 to 6.10	
O=[N+]([O-])c1ccc(C(F)(F)F)c(-c2cc(NCCCN3CCCCC3)c3ccccc3n2)c1 [Compound I152]	5.30 to 6.10	
O=S(=O)(c1ccccc1-c1cc(NCCCN2CCCCC2)c2ccccc2n1)N1CCOCC1 [Compound I233]	< 5.30	
Cn1ccc2cc(-c3cc(NCCCN4CCCCC4)c4ccccc4n3)ccc21 [Compound I109]	6.10 to 6.70	
O=C(c1ccc(-c2cc(NCCCN3CCCCC3)c3ccccc3n2)cc1)N1CCCCC1 [Compound I194, piperidyl 4-{4-[(3-piperidylpropyl)amino](2-quinolyl)}phenyl ketone]	5.30 to 6.10	
FC(F)(F)COc1ccccc1-c1cc(NCCCN2CCCCC2)c2ccccc2n1 [Compound I131]	5.30 to 6.10	
c1ccc2[nH]c(-c3cc(NCCCN4CCCCC4)c4ccccc4n3)cc2c1 [Compound I124]	< 5.30	
FC(F)(F)c1cc(-c2cc(Nc3cccc(CC4CCNCC4)c3)c3ccccc3n2)cc(C(F)(F)F)c1 [Compound I52, {2-[3,5-bis(trifluoromethyl)phenyl](4-quinolyl)}[3-(4-piperidylmethyl)phenyl]amine]	< 5.30	
COc1ccc(-c2cc(NCCCN3CCCCC3)c3cc([N+](=O)[O-])ccc3n2)cc1 [Compound G29, [2-(4-Methoxy-phenyl)-6-nitro-quinolin-4-yl]-(3-piperidin-1-yl-propyl)-amine]	< 5.30	
COc1ccc(-c2cc(Nc3cccc(N(C)C)c3)c3ccccc3n2)cc1 [Compound I25, (3-{[2-(4-methoxyphenyl)(4-quinolyl)]amino}phenyl)dimethylamine]	5.30 to 6.10	
COCc1ccc(-c2cc(NCCCN3CCCCC3)c3ccccc3n2)cc1 [Compound I135]	6.10 to 6.70	
c1ccc(-c2cc(NCCN3CCCCC3)c3ccccc3n2)cc1 [Entry 41]		pIC50 ([1]; Table 2 quinoline series, CP sample (cherry pick of DMSO solution from NIH MLSMR), read-out: LMPTP (OMFP) (IC50)): 5.46; pIC50 ([1]; Table 2 quinoline series, P sample (purchased from commercial sources), read-out: LMPTP (OMFP) (IC50)): 5.54; pIC50 ([1]; Table 2 quinoline series, S sample (synthesized de novo), read-out: LMPTP (OMFP) (IC50)): 5.43; pIC50 ([1]; initial screening hits (Scheme 4), read-out: IC50): 5.46; pIC50 ([1]; purchased compound, read-out: LMPTP (OMFP) IC50): 5.54; pIC50 ([1]; synthesized compound, read-out: LMPTP (OMFP) IC50): 5.43; Hepatic Microsome Stability % Remaining @ 1 hr [2]: 26.54%; Hepatic Microsome Stability % Remaining @ 1 hr [3]: 0.38%; Plasma Stability % Remaining @ 3 hrs [4]: 62.25%; phosphorylation of the insulin receptor [5]: increases phosphorylation of the insulin receptor; Aqueous Solubility Pion's buffer ([6]; pH 5.0): 111.8 µg/mL; Aqueous Solubility Pion's buffer ([6]; pH 6.2): 95.7 µg/mL; Aqueous Solubility Pion's buffer ([6]; pH 7.4): 54.5 µg/mL; Plasma Stability % Remaining @ 3 hrs [7]: 70.08%
COc1ccc(-c2cc(NC(C)c3ccccc3)c3ccccc3n2)cc1 (stereo not shown) [Compound G76]	5.30 to 6.10	
COc1ccc(-c2cc(Nc3cccc(C#N)c3)c3ccccc3n2)cc1 [Compound G38, 3-[2-(4-Methoxy-phenyl)-quinolin-4-ylamino]-benzonitrile]	6.10 to 6.70	
NC(=O)c1ccc(-c2cc(Nc3ccc(CCN4CCNCC4)cc3)c3ccccc3n2)cc1 [Compound I216, 4-(4-{[4-(2-piperazinylethyl)phenyl]amino}-2-quinolyl)benzamide]	< 5.30	
O=C(NC1CCCCC1)c1ccc(-c2cc(NCCCN3CCCCC3)c3ccccc3n2)cc1 [Compound I230]	5.30 to 6.10	
